In article doi:10.1101/2025.11.04.686469, “Discovery of Host-Directed Small Molecules with Broad Anti-Leishmanial Efficacy” (bioRxiv, 2025):

Assays:
[1] = tested on: intracellular L. donovani amastigotes; experiment: Luminescent-based evaluation of intracellular anti-leishmanial activity in THP-1 macrophages; type: cell-based, Leishmania donovani; conditions: Leishmania donovani, THP-1; THP1 macrophages, luminescence assay, 72 hours of treatment; read-out: Intracellular L. donovani amastigotes Lum IC50
Summary of the method: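 PMA-differentiated THP-1 macrophages (150 nM, 72 h) were infected 18 h with firefly luciferase-expressing L. donovani LV82 promastigotes, then washed. Infected cells were treated with compounds at 0.1-10 μM for 72 h. Surviving intracellular amastigotes were quantified by firefly luciferase luminescence after cell lysis and 10 min substrate incubation at room temperature.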

[2] = tested on: intracellular L. donovani in WT and Lys K/O BMDMs; experiment: 197 target validation: Giemsa staining in BMDMs from wild-type and lysozyme knockout mice; type: cell-based, Leishmania donovani; conditions: WT vs Lys K/O BMDMs
Source text: B6.129P2-Lyz2^tm1(cre)Ifo/J mice[23] (stock #004781, herein termed ‘Lys K/O’) were obtained from Jackson Laboratory. This strain has a nuclear-localized Cre recombinase inserted into the first coding ATG of the lysozyme 2 gene (Lyz2) which eliminates endogenous Lyz2 gene function. Wildtype C57BL6/J mice (stock #000664) were obtained as a control.
Bone marrow derived macrophages (BMDMs) were isolated from both mice and cultured as described above in “Image-based Evaluation of Intracellular Anti-Leishmanial Activity”. BMDMs were seeded onto glass cover slips, infected with LV82 L. donovani at a multiplicity of infection of 1:10. Cells were washed to remove extracellular promastigotes and treated with compounds (197, amphotericin B) for a 72-hour incubation. BMDM cells were then washed with phosphate buffered saline, fixed with ice-cold methanol, and stained with Giemsa (5% v/v in water). The cover slips with stained cells are mounted onto glass slides and imaged on EVOS XL (100X, Thermo Fisher Scientific). Leishmania amastigotes per 100 macrophages were determined in a blinded manner.

lysozyme = molecular target: T1, lysozyme (Homo sapiens, UniProt P61626); experiment: Thermal proteome profiling in Leishmania infected macrophage lysate; type: binding; conditions: ligand 100 μM
T1 construct: endogenous in cells; host or cells: THP-1 cells differentiated with PMA and infected with L. mexicana promastigotes; cell lysate
T1 sequence (P61626 19-148): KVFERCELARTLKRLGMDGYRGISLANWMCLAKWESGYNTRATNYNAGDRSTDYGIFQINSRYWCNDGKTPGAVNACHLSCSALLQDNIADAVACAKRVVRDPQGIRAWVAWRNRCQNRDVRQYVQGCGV
Procedure: To generate cell lysate, ten million THP-1 cells were plated overnight in a 10cm dish, then differentiated with 150 nM phorbol 12-myristate 13-acetate (PMA) for 72 hours. The resulting macrophages were infected with L. mexicana promastigotes at a multiplicity of infection of 10 and incubated for 18 hours. After infection, cells were washed three times with PBS to remove extracellular promastigotes. Cells were then collected by scraping and pelleted with centrifugation. The cell pellet was resuspended in phosphate buffered saline and subjected to five freeze-thaw cycles. Samples were centrifuged 14,000g x 10 minutes to remove cellular debris. Protein concentration of supernatant was determined by BCA assay and cell lysate was stored at −80 °C until further use.
The cell lysate was divided into two portions. One portion was spiked with the 197 ligand in DMSO to generate the with ligand sample; and the other portion was spiked with DMSO to generate the without ligand sample. The final concentration of […] in the with ligand sample was 100 μM, and both the without and with ligand samples contained 1% DMSO. The with and without samples were each subjected five replicate one-pot TPP analyses like that previously described.[20–22] […]

## O=C(CNCc1cccc(F)c1)Nc1ccc(-n2cc(C(F)(F)F)nc2-c2ccc(-c3ccc(C(F)(F)F)cc3)cc2)cc1 [Compound 197]
[1]
  IC50: 2400 nM
[2]
  anti-leishmanial activity in Lys K/O BMDMs: notably decreased
lysozyme
  TPP z-score for lysozyme: 4.32
